{"source": "patent US12139508B2", "about": "“Steroid derivative regulators, method for preparing the same, and uses thereof” (JIANGSU HANSOH PHARMACEUTICAL GROUP CO., LTD., priority 2018, dated 2024)", "key": {"GABA-A receptor": {"biological_target": "GABA-A receptor", "assay": "35S-TBPS binding assay (GABAA receptor binding ability test)", "set-up": "species or system Sprague-Dawley rat", "conditions": "rat cerebral cortex cell membrane, 5 μM GABA, 2 nM 35S-TBPS; read-out: 35S-TBPS bindng test: IC50 on inhibiting the TBPS binding activity", "in_short": "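Rat (male Sprague-Dawley) cortical membranes in PBS were preincubated 5 min at 25° C with compound (from 1 μM, 3-fold, 8 points, 1% DMSO), then 5 μM GABA 5 min, then 2 nM ^35S-TBPS for 20 h at 4° C. Filter-bound counts gave % inhibition against DMSO and 10 μM P026-2 controls; IC50 by 4-parameter fit.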"}, "[1]": {"test_system": "PTZ-induced epilepsy model in CD-1 mice", "assay": "In vivo pharmacodynamic test in the PTZ-induced epilepsy model in mice", "conditions": "dose 3 mpk p.o., PTZ 120 mg/kg s.c., 30 min observation", "description": "The PTZ-induced epilepsy model in CD-1 mice was established, and the antiepileptic effect of the compounds of Example 3, Example 60, Example 61 and Example 74 was evaluated using this model.\n50 male CD-1 mice were purchased from Beijing Vital River Laboratory Animal Technology Co. Ltd. The test animals were adapted at the animal room in the third building of Shanghai ChemPartner Co., Ltd for 7 days before the test. The average body weight of the animals on the test day was 32.2±0.2 grams. Feeding environment: 5 animals/cage, room temperature 23±2° C., 12/12 hours of light and dark cycle, free acess to food and water.\n4.2.1 Test Equipments • 1 ml sterile disposable syringe with needle (purchased from Zhejiang Kangdelai Medical Devices Co., Ltd.) • Pipette: Eppendorf Research Plus (100-1000 L) • Vortex mixer: Kylin-Bell Vortex 5 • Ultrasonic instrument: JL-360 ultrasonic cleaner • Balance: METTLER TOLEDO™ XS204 precision balance (note: METTLER TOLEDO™ is a kind of balance used in labs and industry) • Balance: METTLER TOLEDO™ XS6002S electronic balance (note: METTLER TOLEDO™ is a kind of balance used in labs and industry) • Plexiglass box: 25 cm length*15 cm width*15 cm height with one opaque side wall, custom made by Suzhou Fengshi Laboratory Animal Equipment Co., Ltd • 3-channel timer: Oregon/Model NO.WB-388. 4.2.2 Test Animal Grouping • 1) Vehicle/PTZ: 0.5% CMC-Na+1% Tween-80 (10 ml/kg, p.o.), administered 0.5 hr before the PTZ administration; PTZ ([…], s.c.), administered before the test; • 2) 3 mg/kg of the compounds of Examples/PTZ: the compounds of Example 3, Example 60, Example 61 and Example 74 (3 mg/kg, 10 ml/kg, p.o.), administered 0.5 hr before the PTZ administration; PTZ ([…], s.c.), administered before the test. 4.3 Experimental Procedures 4.3.1 Solvent Formulation 1) 0.5% CMC-Na+1% Tween-80 (Administration Volume: 10 mL/Kg):\n4.4 Adaptation to the Environment\nThe mice were randomly grouped, marked and weighed; 10 mice per group. The test compound was administered orally at an administration volume of 10 mL/kg 30-60 minutes before the PTZ administration.\nPTZ (120 mg/kg) was administrated subcutaneously before the test observation, and this time point was recorded as the observation start point; after the administration of PTZ, the animal was immediately placed in the observation box and observed for 30 minutes, and the followings were recorded: a) the incubation period of the first clonic seizure, b) the incubation period of the first generalized tonic seizure, c) the number of clonic seizures, d) the number of generalized tonic seizures, e) the time when the animal died.\nAll measurement data were expressed as Mean±SEM, and analysed with Prism 6.0 statistical software."}}, "data": [{"molecule": "C[C@@]1(O)CC[C@H]2[C@H](CC[C@@H]3[C@@H]2CC[C@@]2(C)[C@H]3[C@@H]3C[C@@H]3[C@@H]2C(=O)Cn2cc(C#N)cn2)C1", "note": "[Example 2, 1-(2-((2R,4aS,4bR,6aS,7S,7aS,8aR,8bR,8cR,10aR)-2-hydroxy-2,6a-dimethyloctadecahydrocyclopropa[4,5]cyclopenta[1,2-a]phenanthren-7-yl)-2-oxoethyl)-1H-pyrazole-4-carbonitrile]", "values": [{"measurement": "IC50", "setting": "GABA-A receptor", "result": 24.3, "unit": "nM"}]}, {"molecule": "C[C@@]1(O)CC[C@H]2[C@H](CC[C@@H]3[C@@H]2CC[C@@]2(C)[C@H]3[C@@H]3C[C@@H]3[C@@H]2C(=O)Cn2ccc(C#N)n2)C1", "note": "[Example 3, 1-(2-((2R,4aS,4bR,6aS,7S,7aS,8aR,8bR,8cR,10aR)-2-hydroxy-2,6a-dimethyloctadecahydrocyclopropa[4,5]cyclopenta[1,2-a]phenanthren-7-yl)-2-oxoethyl)-1H-pyrazole-3-carbonitrile]", "values": [{"measurement": "IC50", "setting": "GABA-A receptor", "result": 14.9, "unit": "nM"}, {"measurement": "Incubation period of the clonic seizure, Mean ± SEM", "setting": "[1]", "result": "902.9 ± 200.8", "unit": "s"}, {"measurement": "Incubation period of the generalized tonic seizure, Mean", "setting": "[1]", "result": "1736.0 ± 63.2", "unit": "s"}, {"measurement": "Mortality rate", "setting": "[1]", "result": 10, "unit": "%"}, {"measurement": "Number of clonic seizures, Mean", "setting": "[1]", "result": "1.3 ± 0.3"}, {"measurement": "Number of generalized tonic seizures, Mean", "setting": "[1]", "result": "0.1 ± 0.1"}, {"measurement": "Time when the animal died, Mean", "setting": "[1]", "result": "1739.8 ± 60.2", "unit": "s"}]}, {"molecule": "C[C@@]1(O)CC[C@H]2[C@H](CC[C@@H]3[C@@H]2CC[C@@]2(C)[C@H]3[C@@H]3C[C@@H]3[C@@H]2C(=O)Cn2cc(C(F)(F)F)cn2)C1", "note": "[Example 5, 1-((2R,4aS,4bR,6aS,7S,7aS,8aR,8bR,8cR,10aR)-2-Hydroxy-2,6a-dimethyloctadecahydrocyclopropa[4,5]cyclopenta[1,2-a]phenanthren-7-yl)-2-(4-(trifluoromethyl)-1H-pyrazol-1-yl)ethan-1-one]", "values": [{"measurement": "IC50", "setting": "GABA-A receptor", "result": 13.5, "unit": "nM"}]}, {"molecule": "C[C@@H]1C[C@H](C(=O)Cn2cc(C#N)cn2)[C@@]2(C)CC[C@H]3[C@@H](CC[C@@H]4C[C@](C)(O)CC[C@@H]43)[C@H]12", "note": "[Example 13, 1-(2-((3R,5R,8R,9R,10S,13S,14S,15R)-3-Hydroxy-3,13,15-trimethylhexadecahydro-1H-cyclopenta[a]phenanthren-17-yl)-2-oxoethyl)-1H-pyrazole-4-carbonitrile]", "values": [{"measurement": "IC50", "setting": "GABA-A receptor", "result": 4.6, "unit": "nM"}]}, {"molecule": "C[C@@H]1C[C@H](C(=O)Cn2ccc(C#N)n2)[C@@]2(C)CC[C@H]3[C@@H](CC[C@@H]4C[C@](C)(O)CC[C@@H]43)[C@H]12", "note": "[Example 60, 1-(2-((3R,5R,8R,9R,10S,13S,14S,15R,17S)-3-Hydroxy-3,13,15-trimethylhexadecahydro-1H-cyclopenta[a]phenanthren-17-yl)-2-oxoethyl)-1H-pyrazole-3-carbonitrile]", "values": [{"measurement": "IC50", "setting": "GABA-A receptor", "result": 8.2, "unit": "nM"}, {"measurement": "Incubation period of the clonic seizure, Mean ± SEM", "setting": "[1]", "result": "1308.1 ± 170.1", "unit": "s"}, {"measurement": "Incubation period of the generalized tonic seizure, Mean", "setting": "[1]", "result": "1800.0 ± 0.0", "unit": "s"}, {"measurement": "Mortality rate", "setting": "[1]", "result": 0, "unit": "%"}, {"measurement": "Number of clonic seizures, Mean", "setting": "[1]", "result": "0.5 ± 0.2"}, {"measurement": "Number of generalized tonic seizures, Mean", "setting": "[1]", "result": "0.0 ± 0.0"}, {"measurement": "Time when the animal died, Mean", "setting": "[1]", "result": "1800.0 ± 0.0", "unit": "s"}]}, {"molecule": "C[C@@]1(O)CC[C@H]2[C@H](CC[C@@H]3[C@@H]2CC[C@]2(C)C(C(=O)Cn4cc(C#N)cn4)C[C@@H](C4CC4)[C@@H]32)C1", "note": "(stereo partly drawn) [Example 71, 1-(2-((3R,5R,8R,9R,10S,13S,14S,15S)-15-Cyclopropyl-3-hydroxy-3,13-dimethylhexadecahydro-1H-cyclopenta[a]phenanthren-17-yl)-2-oxoethyl)-1H-pyrazole-4-carbonitrile]", "values": [{"measurement": "IC50", "setting": "GABA-A receptor", "result": 7.5, "unit": "nM"}]}, {"molecule": "CC[C@@H]1C[C@H](C(=O)Cn2ccc(C#N)n2)[C@@]2(C)CC[C@H]3[C@@H](CC[C@@H]4C[C@](C)(O)CC[C@@H]43)[C@H]12", "note": "[Example 137, 1-(2-((3R,5R,8R,9R,10S,13S,14S,15R,17S)-15-Ethyl-3-hydroxy-3,13-dimethylhexadecahydro-1H-cyclopenta[a]phenanthren-17-yl)-2-oxoethyl)-1H-pyrazole-3-carbonitrile]", "values": [{"measurement": "IC50", "setting": "GABA-A receptor", "result": 16.2, "unit": "nM"}]}, {"molecule": "C[C@@]1(O)CC[C@H]2[C@H](CC[C@@H]3[C@@H]2CC[C@@]2(C)[C@H]3[C@H](C3CC3)C[C@@H]2C(=O)Cn2ccnn2)C1", "note": "[Example 145, 1-((3R,5R,8R,9R,10S,13S,14S,15S,17S)-15-Cyclopropyl-3-hydroxy-3,13-dimethylhexadecahydro-1H-cyclopenta[a]phenanthren-17-yl)-2-(1H-1,2,3-triazol-1-yl)ethan-1-one]", "values": [{"measurement": "IC50", "setting": "GABA-A receptor", "result": 16.9, "unit": "nM"}]}, {"molecule": "C[C@@]1(O)CC[C@H]2[C@H](CC[C@@H]3[C@@H]2CC[C@@]2(C)[C@H]3[C@H](C3CC3)C[C@@H]2C(=O)Cn2ncnn2)C1", "note": "[Example 146, 1-((3R,5R,8R,9R,10S,13S,14S,15S,17S)-15-Cyclopropyl-3-hydroxy-3,13-dimethylhexadecahydro-1H-cyclopenta[a]phenanthren-17-yl)-2-(2H-tetrazol-2-yl)ethan-1-one]", "values": [{"measurement": "IC50", "setting": "GABA-A receptor", "result": 21.4, "unit": "nM"}]}]}
